Test results published in patent US20090253131A1, “HYBRID FUSION REPORTER AND USES THEREOF” (Promega Corporation, priority 2007, published 2009).

How the values were obtained:
DhaA.H272F = DhaA.H272F (Rhodococcus rhodochrous, UniProt P0A3G2, H272F); test: Binding of labeled chloroalkane substrates to DhaA.H272F
From the text: (§1) Carboxytetramethylrhodamine-C10H21NO2—Cl, carboxyfluorescein-C10H21NO2—Cl, and 5-carboxy-X-rhodamine-C10H21NO2—Cl bound to DhaA.H272F but not to DhaA.WT. Biotin-C10H21NO2—Cl bound to DhaA.H272F but not to DhaA.WT.

DhaA.WT = DhaA.WT (Rhodococcus rhodochrous, UniProt P0A3G2); test: Binding of labeled chloroalkane substrates to wild type DhaA
From the text: as §1

[1] = target: cyclic AMP dependent protein kinase catalytic subunit (Homo sapiens, UniProt P17612); details: cited from earlier work
streptavidin = streptavidin (Streptomyces avidinii, UniProt P22629); details: surface plasmon resonance; cited from earlier work
[2] = target: catalytic subunit of protein kinase A (Homo sapiens, UniProt P17612); details: cited from earlier work

Molecule: 5-carboxy-X-rhodamine-C10H21NO2—Cl
- binding to DhaA.H272F (DhaA.H272F): bound
- binding to DhaA.WT (DhaA.WT): not

Molecule: LRRASLG
- reduction of activity on addition of kinase catalytic subunit [1]: 30%

Molecule: O=C(O)CCCC[C@@H]1SC[C@@H]2NC(=O)N[C@@H]21 [biotin]
- on-rate for biotin-streptavidin interaction (streptavidin): 5e+06 M⁻¹ s⁻¹

Molecule: O=C(CCCC[C@@H]1SC[C@@H]2NC(=O)N[C@@H]21)NCCOCCOCCCCCCCl [Biotin-C10H21NO2—Cl]
- binding to DhaA.H272F (DhaA.H272F): bound
- binding to DhaA.WT (DhaA.WT): not

Molecule: O=C(NCCOCCOCCCCCCCl)c1ccc(-c2c3ccc(=O)cc-3oc3cc(O)ccc23)c(C(=O)O)c1 [carboxyfluorescein-C10H21NO2—Cl]
- binding to DhaA.H272F (DhaA.H272F): bound
- binding to DhaA.WT (DhaA.WT): not

Molecule: RRFS: Photinus pyralis luciferase with valine 217 mutated to arginine generating site RRFS (Sala-Newby et al.)
- decrease of activity when phosphorylated [2]: up to 80%

Molecule: Carboxytetramethylrhodamine-C10H21NO2—Cl
- binding to DhaA.H272F (DhaA.H272F): bound
- binding to DhaA.WT (DhaA.WT): not
